Laboratory results published in patent US20160281050A1, “METHODS FOR TREATING A CULTURE OF HAEMATOCOCCUS PLUVIALIS FOR CONTAMINATION USING SALT AND HYDROGEN PEROXIDE” (HELIAE DEVELOPMENT LLC, priority 2015, published 2016).

System: pure chytrid culture
Experiment: Chytrid tolerance: pure chytrid culture in well plate, observed under a microscope (Examples 13-14)
Format: cell-based
Method: Experiments were performed to determine chytrid tolerance to bleach, salt, Lufenuron (chemical biocide), and Rid Fungus (blend of natural organic herbs) for evaluation as a treatment for chytrids. A pure chytrid culture in a well plate was treated every 24 hours and observed under a microscope to determine the effect. An untreated culture was used as a control for comparison purposes. Qualitative assessments and quantitative estimates were made by visual observation under a microscope.
Several concentrations of salt and Rid Fungus (blend of organic herbs) were further investigated as a chytrid treatment, as in Example 13. A pure chytrid culture in a well plate was treated and visually observed under a microscope to determine the effect. An untreated culture was used as a control for comparison purposes.

Structure (SMILES): [Cl-].[Na+] [NaCl, sodium chloride]
- microscope observation of pure chytrid culture (Example 13, 20 ppt, after 1 hour): clumped sporangia and zoospores
- microscope observation of pure chytrid culture (Example 13, 20 ppt, after 24 hours): Wilting sporangia and no zoospores
- microscope observation of pure chytrid culture (Example 13, 20 ppt, after 48 hours): bacteria with shriveled zoospores and sporangia
- microscope observation of pure chytrid culture (Example 13, 20 ppt, after 72 hours): no zoospores or sporangia
- microscope observation of pure chytrid culture (Example 14, 5 ppt, after 1 hour): a less dense mass of zoospores with some being motile but sluggish
- microscope observation of pure chytrid culture (Example 14, 5 ppt, after 4.5 hours): A mix of non-motile and motile zoospores
- microscope observation of pure chytrid culture (Example 14, 10 ppt, after 1 hour): a mass of zoospores at the same density as the 5 ppt treatment but with all being non-motile
- microscope observation of pure chytrid culture (Example 14, 10 ppt, after 4.5 hours): Non-motile zoospores only
- microscope observation of pure chytrid culture (Example 14, 20 ppt, after 1 hour): a mass of zoospores less dense than mass of the 5 and 10 ppt treatments but with all being non-motile
- microscope observation of pure chytrid culture (Example 14, 20 ppt, after 4.5 hours): Non-motile zoospores only
